Results on 79 compounds are retold here after the METLIN SMRT retention time set (Domingo-Almenara et al. 2019).

SMILES strings stand for the structures.

This series can be described thus: gradient 5% acetonitrile 3 min, to 50% in 2 min, to 85% in 15 min, held 3 min, 100 µL/min. Particulars: column: Zorbax Extend-C18 2.1 x 50 mm; eluents: water / acetonitrile, 0.1% formic acid. A digest of the protocol:
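Values are retention times taken from adduct peaks that software picked and an analyst inspected. The pure standards were run as mixtures of ~100 molecules on HPLC linked to a quadrupole time-of-flight mass spectrometer, in positive and negative ionization mode. A Zorbax Extend-C18 column (2.1 × 50 mm, 1.8 μm) was used at 100 μL/min with water and acetonitrile, each including 0.1% formic acid.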
Consider `COc1cc(NC(=O)Cn2ccnc2-c2ccnc(N3CCOCC3)c2)cc(OC)c1`, for which the RP-LC retention time was found to be 625 s.
In the case of `Cc1cc(C)n(CCC(=O)N2CC(Oc3cccc(-c4nc(-c5ccccc5)no4)c3)C2)n1` it was 1000 s; in that of `CCc1nnc(-c2ccc3ccn(CC(=O)NCCc4cccs4)c3c2)o1`, 781 s; in that of `Cc1ccc(CNS(=O)(=O)c2cc(-c3nc(C)c(C)s3)cs2)cc1`, 1040 s.
As for `CC(CNC(=O)CN1C(=O)C2CCCCN2c2ccc(S(=O)(=O)N(C)C)cc21)c1ccccc1` (centres undefined), the figure is 943 s; as for `COc1cccc(-c2nc3sc(C(=O)N4CCOCC4)c(C)n3c2NC(C)(C)C)c1`, 795 s.
In the case of `CCc1ccccc1S(=O)(=O)N1C[C@H](F)C[C@@H]1C(=O)N1CCOCC1` it was 740 s.
Turning to `O=C(Nc1ccc2c(c1)OCCO2)c1coc2ccccc12`, the RP-LC retention time worked out at 826 s.
In the case of `CN(C)c1ccc(N2C=C(C(=O)N3CCOCC3)S(=O)(=O)c3ccc(Cl)cc32)cc1`, the RP-LC retention time was 875 s.
In the case of `O=C(Nc1ccc(N2CCOCC2)cc1)C1=Cc2cc(Cl)ccc2OC=C1` it was 992 s.
As for `Cc1cnc(CCC2CCCN2C(=O)c2ccc(Cn3cncn3)o2)n1C(C)C` (centres undefined), the figure is 626 s; as for `CCCCCn1c(=O)c2ccccc2n(Cc2nc(-c3ccccc3OC)no2)c1=O`, 1130 s.
As for `O=C(N1CCCC1)N1CCN(c2ccccc2F)CC1`, the RP-LC retention time is 762 s.
As for `COc1cc(OC)cc(-c2nc(Cn3cnc4ccccc4c3=O)no2)c1`, the figure is 871 s; as for `COc1ccc(C2Cn3cnc(C(=O)N4CCC(C(=O)NCC(C)C)CC4)c3CO2)cc1` (centres undefined), 724 s.
In the case of `CCS(=O)(=O)Nc1ccc(C2(C(=O)NCc3cccc(Cl)c3)CCC2)cc1` it was 876 s; in that of `O=S(=O)(c1ccc(Cl)s1)N1CCc2nc(-c3ccc(Cl)cc3)ncc2C1`, 1310 s; in that of `Cc1cc(NC(=O)Cc2csc(NC(=O)c3ncccn3)n2)no1`, 591 s.
In the case of `CC(C)NC(=O)c1ccc(OCC2CCN(C(=O)C(C)C)CC2)cc1` it was 756 s; in that of `C=C1C(=O)O[C@@H]2[C@H]3O[C@]3(C)CC/C=C(/C)CC[C@@H]12`, 972 s; in that of `Cc1c(-c2noc(-c3ccccc3F)n2)nnn1Cc1ccc(F)cc1`, 1030 s.
`CCNc1nc(C)cc(N2CCN(S(=O)(=O)c3cccc(C)c3)CC2)n1` came in with an RP-LC retention time of 708 s.
With `Cc1ccc(C(=O)NC2(c3nc(C)no3)CCCCC2)cc1`, the RP-LC retention time stood at 886 s.
As for `O=C(CSc1ncc(-c2cccc(Cl)c2)o1)Nc1ccccc1C(F)(F)F`, the figure is 1070 s; as for `Cc1cccc(-c2noc(-c3cc(N4CCN(C)CC4)nc4ccccc34)n2)c1`, 837 s; as for `CCN1C(=O)COc2cc(-c3noc(C(=O)N4CCN(c5cccc(Cl)c5)CC4)n3)ccc21`, 1140 s.
Turning to `O=C(CN1C(=O)C(C(=O)N2CCCC2)Sc2ccccc21)NC1CCCCCCC1` (centres undefined), the RP-LC retention time stood at 1060 s.
Turning to `CCCCn1cc(S(=O)(=O)Nc2ccc(F)cc2Cl)c2cccnc21`, the RP-LC retention time came out at 862 s.
In the case of `Cc1cc(C)cc(N2CCC(NC(=O)Cc3ccc(F)cc3)C2=O)c1` (centres undefined) it was 864 s.
In the case of `Cc1ccc(-n2cc(C(=O)NCCCOC(C)C)nn2)cc1` it was 810 s; in that of `CCCNc1cc(N2CCCC(CCC(=O)N(CC)CC)C2)ncn1` (centres undefined), 658 s.
Compound `CCOCC(=O)N1C[C@@H]2CCCN3CCC[C@@H]([C@H]23)[C@H]1CCCC(=O)NCC1CC1` gave an RP-LC retention time of 574 s.
As for `CC(CCNC(=O)c1nnc(-c2ccc(S(=O)(=O)N3CCOCC3)cc2)o1)N1CCCCCC1` (centres undefined), the figure is 605 s.
In the case of `Cc1ccc(-n2c(N3CCCC(C(=O)Nc4ccc(Cl)cc4)C3)nc3ccsc3c2=O)cc1` (centres undefined) it was 1080 s.
For `Cc1cc(-c2nnc(NC(=O)c3cc(Cl)sc3Cl)o2)n(C)n1`, the RP-LC retention time is 772 s.
Compound `Cc1noc([C@@H]2CN(C(=O)c3cn[nH]c3)C[C@H]2C(N)=O)n1` came in with an RP-LC retention time of 536 s.
As for `O=C(Cn1ncn2nc(-c3ccccc3)cc2c1=O)NCCCN1CCCC1`, the figure is 602 s.
`CC(C)NC(=O)Cn1cc(-c2ccccc2)c2ncnc(N3CCOCC3)c21` registered an RP-LC retention time of 659 s.
As for `CCC(=O)N1CCc2c(C(=O)NC3CCCCC3)cccc21`, the figure is 831 s.
In the case of `Cc1cc(N2CCCC2)n2nc(CN3CCCC(C)C3)nc2n1` (centres undefined), the RP-LC retention time amounted to 571 s.
For the compound `Cc1nc(-c2nnn(-c3ccccc3)c2C)sc1C(=O)NCCc1cccs1`, the RP-LC retention time came to 936 s.
The compound `CCCc1ccc(S(=O)(=O)N2CCc3c(c(-c4nnc(-c5ccc(C)cc5)o4)nn3C)C2)cc1` returned an RP-LC retention time of 1160 s.
As for `CCOC(=O)CNC(=O)N1CCN(c2ccc(=O)n(-c3ccc(C)cc3)n2)CC1`, the figure is 683 s; as for `Cc1ccc(-n2nc(N3CCCC(C(=O)NCc4ccc5c(c4)OCO5)C3)ccc2=O)cc1Cl` (centres undefined), 875 s.
In the case of `O=C(O)c1cn2ccnc(-c3ccc(F)cc3)c2n1` it was 688 s; in that of `CC(C(=O)NCCN(C)C)C1CCN(C(=O)c2cc3cc(Cl)ccc3[nH]2)CC1` (centres undefined), 649 s.
In the case of `O=C(c1nnc(-c2csc(S(=O)(=O)N3CCN(c4ccccn4)CC3)c2)o1)N1CCCCC1` it was 709 s; in that of `O=C(c1ccc(CS(=O)c2cccc(Cl)c2)o1)N1CCN(c2ccccn2)CC1` (centres undefined), 602 s; in that of `CN1C(=O)COc2ccc(-c3csc(NC(=O)c4cccnc4)n3)cc21`, 733 s.
Compound `CC(C(=O)N1CC2CN(S(=O)(=O)c3cccc(F)c3)CC(C1)O2)c1ccccc1` (centres undefined) yielded an RP-LC retention time of 878 s.
For `O=C(Cc1ccsc1)N1CCC(c2nc(-c3ccccc3)no2)C1` (centres undefined), the RP-LC retention time is 864 s.
As for `CN1CCN(c2ncc(C(=O)O)c(-c3ccccc3)n2)CC1`, the figure is 562 s.
In turn, `CCc1ccccc1NC(=O)N1CCCC(C)(C(=O)NCc2ccc(F)cc2)C1` (centres undefined) displayed an RP-LC retention time of 864 s.
In the case of `COc1ccc(OC)c(NC(=O)NC2CCN(c3nc4ccccc4n(C)c3=O)CC2)c1` it was 886 s; in that of `Cc1ccn2c(Nc3ccc4c(c3)OCCO4)c(-c3ccc(N4CCOCC4)cc3)nc2c1`, 680 s.
For the compound `COc1ccccc1NC(=O)C1CCCN1S(=O)(=O)c1cc2c(cc1C)NC(=O)CO2` (centres undefined), the RP-LC retention time came to 808 s.
`CCC(C(=O)NC(C)C(=O)N1CCCCC1)n1c2ccccc2c2cnn(C)c(=O)c21` (centres undefined) gave an RP-LC retention time of 670 s.
The compound `Cc1ccc(NC(=O)Cn2c(C)cc(-c3nnc(C)o3)c2C)c(Cl)c1` registered an RP-LC retention time of 835 s.
For `CCC(C)n1c(=O)c2ccccc2n(Cc2nc(-c3ccc(OC)c(OC)c3)no2)c1=O` (centres undefined), the RP-LC retention time was determined as 1060 s.
`CCn1c(=O)oc2cc(-c3noc(-c4ccc(C(F)(F)F)cc4)n3)ccc21` had an RP-LC retention time of 1220 s.
As for `CCOc1ccc(NC(=O)c2cc(=O)c3cc(CC)ccc3o2)c2cccnc12`, the figure is 693 s; as for `CCn1nc(C)cc1C(=O)Nc1nc(-c2cccs2)cs1`, 903 s; as for `O=C1CCCN1CCCN1C(=O)[C@H]2CN(Cc3ccccc3OC(F)(F)F)C[C@H]2C1=O`, 687 s.
Regarding `Cc1cc(F)cc2c(=O)c3c([nH]c12)CCN(CC(=O)Nc1ccccc1)C3`, the RP-LC retention time came to 616 s.
`CCn1c(CCNC(=O)c2ccc(F)c(Cl)c2)nc2cccnc21` came in with an RP-LC retention time of 676 s.
As to `CCOc1cc(=O)n2c(c1C(=O)Nc1cccc(Br)c1)CCCC2`, the RP-LC retention time amounted to 802 s.
The compound `Cc1nc(-c2ccccc2)nn1C1CCN(S(=O)(=O)c2cn(C)cn2)C1` (centres undefined) returned an RP-LC retention time of 632 s.
In the case of `CCC1=NS(=O)(=O)c2cccnc2N1c1ccc(F)c(C)c1` it was 897 s; in that of `COc1cccc(-c2ccc(=O)n(CCCC(=O)Nc3cccc4nsnc34)n2)c1`, 764 s.
In the case of `Cc1nn(CC(=O)NCC2CCCO2)c(=O)c2nc(-c3ccccc3)sc12` (centres undefined) it was 709 s; in that of `CC1CC(=O)N(CC(=O)Nc2ccc(Cl)cc2)c2ccccc2S1(=O)=O` (centres undefined), 843 s; in that of `COc1ccc2c(c1)C1(CCN(S(=O)(=O)c3c(C)noc3C)C1)C(=O)N2C` (centres undefined), 877 s.
For `O=C(O)CCc1conc1-c1cccc(F)c1`, the RP-LC retention time is 729 s.
As to `COc1ccc(C(=O)NC2c3ccccc3-c3ccccc32)cc1OC`, the RP-LC retention time was 861 s.
Take `COc1cccc(NC(=O)Cn2nc3cc(C)nc(N4CCCC4)n3c2=O)c1`: the RP-LC retention time was determined as 760 s.
In the case of `CN(C)C(=O)c1ccc2c(c1)nnn2CCNC(=O)Nc1ccc(Br)cc1F` it was 703 s; in that of `COc1ccc(-c2nc(-c3ccc4c(c3)nc(C)c(=O)n4C(C)C)no2)cc1`, 1160 s; in that of `O=C(Cn1nc2c3cc(-c4ccccc4)nn3ccn2c1=O)NCc1ccco1`, 792 s.
In the case of `CCc1ccc(CNC(=O)C2Cc3cc(S(=O)(=O)N4CCCCC4)ccc3N2C(C)=O)cc1` (centres undefined), the RP-LC retention time was 983 s.
